Test results reported in patent US20160264655A1, “Treating cancers with drugs targeting CREB3L1” (Board of Regents, The University of Texas System, priority 2013, published 2016).
Read-outs that look alike come from different tables or passages of the source.

Assays:
Huh7 cells [1] = experiment: Proliferation of Huh7 cells; assay type: cell-based, human
Procedure: (§1) Inasmuch as CREB3L1 was required for doxorubicin to induce expression of p21, a well-characterized inhibitor of the cell cycle (11), we determined whether CREB3L1 was also required for the drug to inhibit cell proliferation. […] These concentrations of doxorubicin were not enough to trigger apoptosis of Huh7 cells, which became apparent only when the cells were treated with 5 μM of the compound.

CREB3L1 [2] = experiment: CREB3L1 cleavage, immunoblot of membrane and nuclear fractions of Huh7 cells; assay type: cell-based, human; conditions: for amount of the nuclear form of CREB3L1 (cleavage of CREB3L1): Huh7 cells, compound alone
Text: We fractionated human hepatoma Huh7 cells (6) into membrane and nuclear fractions, and used an antibody reacting against the NH2-terminal domain of CREB3L1 (3) to examine the cleavage of CREB3L1 through immunoblot analysis.

Huh7 cells [3] = experiment: Apoptosis of Huh7 cells; assay type: cell-based, human
Procedure: as §1

CREB3L1 [4] = experiment: CREB3L1 cleavage in wild type and S1P- or S2P-deficient CHO cells; assay type: cell-based, Chinese Hamster
SV589 cells = experiment: Growth inhibition of SV589 cells; assay type: cell-based, human; conditions: two siRNA duplexes
Procedure: (§2) If proteolytic activation of CREB3L1 is required for doxorubicin to inhibit cell proliferation, then the amount of CREB3L1 expressed in cancer cells may determine their sensitivity to doxorubicin. To test this hypothesis, we analyzed SV589 cells, an immortalized line of human fibroblasts (12), and MCF-7 cells, a line of human breast cancer cells (13). […] In this experiment, cells were treated with doxorubicin for 2 days. To determine the effect of CREB3L1 expression on proliferation of the cells treated with doxorubicin for a longer period of time, we incubated MCF-7 and MCF7/pCREB3L1(H) cells with 15 nM doxorubicin for 6 days.

human kidney tumor = experiment: Xenograft of human kidney tumors in mice; assay type: in vivo
[5] = patients treated with the drug; cited from earlier work
histone γH2AX = experiment: DNA breaks, histone γH2AX marker; assay type: cell-based
MCF-7 cells = experiment: Proliferation of MCF-7 cells with or without CREB3L1 overexpression; assay type: cell-based, human; conditions: for IC50: Homo sapiens, MCF7, 48 h, treated 2 days, read-out: IC50 for doxorubicin; for proliferation (cell counting, cellular DNA content): 15 nM for 6 days
Procedure: as §2

collagen 1a1 and p21 = experiment: Expression of CREB3L1 target genes in Huh7 cells; assay type: cell-based, human
Procedure: as §1

MCF7 = MCF7 xenograft in athymic nude mice; assay type: in vivo; conditions: MCF7 overexpressing CREB3L1 vs without overexpression
Procedure: In particular, the relationship between CREB3L1 expression and doxorubicin sensitivity is confirmed in a study of 45 lines of breast cancer cells from ATCC Breast Cancer Cell Panel. […] The relationship between CERB3L1 expression and doxorubicin sensitivity is also confirmed in vivo by injection of MCF7 with or without overexpression of CREB3L1 into athymic nude mice. These mice are then treated with different doses of doxorubicin, confirming that the dose of doxorubicin required to shrink tumors produced from MCF7 cells overexpressing CREB3L1 are lower than those required to shrink tumors generated from those without the overexpression.

ceramide synthesis = experiment: Ceramide synthesis, tritium-labeled palmitate incorporation in Huh7 cells; assay type: cell-based, human
Text: RIP of membrane-bound transcription factors is known to be a signal transduction pathway that transfers signals from the ER to nucleus (5). […] Daunorubicin, a chemotherapeutic drug derived from doxorubicin, was reported to induce de novo synthesis of ceramide (15).

cell growth = experiment: Requirement of CREB3L1 for inhibition of cell growth; assay type: cell-based
Text: We then determined the relationship between doxorubicin-induced cleavage of CREB3L1 and DNA breaks caused by inhibition of topoisomerase. […] However, this effect was unaffected by knockdown of CREB3L1 expression.

[6] = Huh7 cells with CREB3L1 knockdown

CCCCCCCCCCCCC/C=C/[C@@H](O)[C@H](CO)NC(=O)CCCCC [C6-ceramide]
inhibition of cell proliferation after CREB3L1 knockdown (Huh7 cells [1]; [6]): completely abolished the ability of C6-ceramide to inhibit cell proliferation | amount of the nuclear form of CREB3L1 (cleavage of CREB3L1) (CREB3L1 [2]): stimulated CREB3L1 cleavage

CCCCCCC(=O)CCCCCC/C=C/C[C@@H](O)[C@H](O)[C@@](N)(CO)C(=O)O [Myriocin]
effect of co-treatment on cell sensitivity to doxorubicin (Huh7 cells [1]; co-treatment with doxorubicin): rendered the cells more resistant to doxorubicin | inhibition of doxorubicin-induced cleavage of CREB3L1 (CREB3L1 [2]; co-treatment with doxorubicin): inhibited doxorubicin-induced cleavage of CREB3L1 in a dose-dependent manner

COc1cccc2c1C(=O)c1c(O)c3c(c(O)c1C2=O)C[C@@](O)(C(=O)CO)C[C@@H]3O[C@H]1C[C@H](N)[C@H](O)[C@H](C)O1 [doxorubicin, Doxorubicin]
concentration at which apoptosis became apparent (Huh7 cells [3]): 5 µM | concentration that blocks proliferation (Huh7 cells [1]; Huh7-shCREB3L1 cells): > 500 nM | cleavage of CREB3L1 to the nuclear form (CREB3L1 [4]; mutant CHO cells deficient in either S1P or S2P): failed to produce the nuclear form of CREB3L1 | cleavage of CREB3L1 to the nuclear form (CREB3L1 [4]; wild type CHO cells): stimulated cleavage of CREB3L1 | effect of CREB3L1 siRNA knockdown on sensitivity (SV589 cells): more resistant | effect compared with rapamycin (human kidney tumor; tumors expressing CREB3L1): better than rapamycin | tumor response (human kidney tumor; tumors expressing CREB3L1, dose about 7 times lower than clinical): profoundly inhibited | tumor response (human kidney tumor; tumors without CREB3L1 expression, dose about 7 times lower than clinical): did not respond | doxorubicin sensitivity of kidney tumors (human kidney tumor; tumors without vs with CREB3L1 by 10H1 staining, day 3 to 21): much less doxorubicin sensitivity | amount of the nuclear form of CREB3L1 (cleavage of CREB3L1) (CREB3L1 [2]): markedly raised the amount of the nuclear form of CREB3L1 | clinically relevant concentration in the serum of patients [5]: < 1 µM | DNA breaks (histone γH2AX) (histone γH2AX): induced appearance of histone γH2AX | IC50 (MCF-7 cells; MCF7/pCREB3L1(H), 300-fold CREB3L1 overexpression): ~1 nM | IC50 (MCF-7 cells; MCF7/pCREB3L1(L), 8-fold CREB3L1 overexpression): 10 nM | IC50 (MCF-7 cells; parental MCF-7 cells): 500 nM | proliferation (cell counting, cellular DNA content) (MCF-7 cells; MCF7/pCREB3L1(H) cells): markedly blocked proliferation | proliferation (cell counting, cellular DNA content) (MCF-7 cells; MCF-7 cells): did not affect proliferation | induction of collagen 1a1 and p21 (collagen 1a1 and p21; Huh7-shCREB3L1 cells): markedly blunted | expression of collagen 1a1 and p21 (collagen 1a1 and p21; Huh7-shControl cells): induced the expression of collagen 1a1 and p21 | dose required to shrink tumors (MCF7): lower | tritium-labeled palmitate incorporated into ceramide (ceramide synthesis): increased the amount of tritium-labeled palmitate incorporated into ceramide

COc1cc([C@@H]2c3cc4c(cc3[C@@H](O[C@@H]3O[C@@H]5CO[C@@H](C)O[C@H]5[C@H](O)[C@H]3O)[C@H]3COC(=O)[C@H]23)OCO4)cc(OC)c1O [etoposide]
effect of CREB3L1 knockdown on resistance (Huh7 cells [1]; [6]): did not increase their resistance | amount of the nuclear form of CREB3L1 (cleavage of CREB3L1) (CREB3L1 [2]): failed to induce cleavage of CREB3L1 | effect of CREB3L1 overexpression on sensitivity (MCF-7 cells; MCF7 cells overexpressing CREB3L1): did not increase their sensitivity

CC(=O)O[C@H]1C(=O)[C@@]2(C)[C@H]([C@H](OC(=O)c3ccccc3)[C@]3(O)C[C@H](OC(=O)[C@H](O)[C@@H](NC(=O)c4ccccc4)c4ccccc4)C(C)=C1C3(C)C)[C@]1(OC(C)=O)CO[C@@H]1C[C@@H]2O [paclitaxel]
requirement of CREB3L1 to inhibit cell growth (cell growth): not required

bleomycin
requirement of CREB3L1 to inhibit cell growth (cell growth): not required
